Assay results reported in patent US20090124672A1 (priority 2007, published 2009).

Legend:
hMAO-B = target: T1, hMAO-B (Homo sapiens, UniProt P27338); assay: MAO-B inhibition assay (Amplex Red, horseradish peroxidase-coupled); assay type: biochemical; conditions: at 10 μM; for inhibition at 10 µM: read-out: hMAO-B inhibition (IC50 hMAO-B)
T1 construct: purchased Sigma M7441
T1 sequence (P27338 1-520): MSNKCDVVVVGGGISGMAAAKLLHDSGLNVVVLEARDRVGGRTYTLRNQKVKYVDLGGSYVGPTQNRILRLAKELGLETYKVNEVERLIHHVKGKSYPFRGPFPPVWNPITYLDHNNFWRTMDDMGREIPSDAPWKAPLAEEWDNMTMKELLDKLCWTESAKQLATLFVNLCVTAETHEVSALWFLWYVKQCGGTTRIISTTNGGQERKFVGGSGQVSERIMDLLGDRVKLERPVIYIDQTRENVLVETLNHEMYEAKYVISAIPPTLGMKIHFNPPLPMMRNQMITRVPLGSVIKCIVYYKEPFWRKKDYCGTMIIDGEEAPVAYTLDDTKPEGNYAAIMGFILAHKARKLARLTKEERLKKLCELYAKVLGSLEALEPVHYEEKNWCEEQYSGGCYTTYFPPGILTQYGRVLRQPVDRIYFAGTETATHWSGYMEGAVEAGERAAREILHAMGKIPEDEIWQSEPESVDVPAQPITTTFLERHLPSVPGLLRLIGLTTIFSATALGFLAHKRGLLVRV
Procedure: MAO-A (Sigma M7316) and MAO-B (Sigma M7441) inhibition assays were conducted in 96-well micro-plates according to the method described by Zhou et al. [Analytical Biochemistry 253, 169-174, 1997]. Both assays were performed in potassium phosphate buffer (0.1 M, pH 7.5) containing 0.5 mM tyramine (Sigma T2879), 0.12 mM N-acetyl-3,7-dihydrophenoxazine (Amplex Red, Invitrogen A12222), 1.2 unit/ml horseradish peroxidase (Sigma P2088), 0.6 unit/ml MAO-A or 2.5 unit/ml MAO-B, and various concentrations of test compounds (0.1 nM to 10 uM). Reactions were initiated by the addition of a pre-mixed solution of tyramine, horseradish peroxidase and Amplex Red, and were allowed to proceed at 37° C. for 30 min. Enzyme activities were determined by measuring absorbance at 570 nm (SpectralMax Plate reader), absorbance of oxidized Amplex Red generated by this horseradish peroxidase-coupled reaction. Nonspecifically formed products were determined in the presence of 2 and 10 µM clorgyline and deprenyl for MAO-A and MAO-B, respectively. IC50 values were determined by fitting concentration-inhibition data to sigmoidal dose-response curves with two-floating parameters: IC50 and Hill coefficient.

[1] = target: T2, hALDH2 (recombinant human mitochondria ALDH) (Homo sapiens, UniProt P05091); assay: ALDH2 inhibition assay (NADH formation, formaldehyde substrate); assay type: biochemical; conditions: for inhibition at 1 µM: read-out: hALDH2 inhibition (IC50 hALDH2 column)
T2 sequence (P05091 18-517): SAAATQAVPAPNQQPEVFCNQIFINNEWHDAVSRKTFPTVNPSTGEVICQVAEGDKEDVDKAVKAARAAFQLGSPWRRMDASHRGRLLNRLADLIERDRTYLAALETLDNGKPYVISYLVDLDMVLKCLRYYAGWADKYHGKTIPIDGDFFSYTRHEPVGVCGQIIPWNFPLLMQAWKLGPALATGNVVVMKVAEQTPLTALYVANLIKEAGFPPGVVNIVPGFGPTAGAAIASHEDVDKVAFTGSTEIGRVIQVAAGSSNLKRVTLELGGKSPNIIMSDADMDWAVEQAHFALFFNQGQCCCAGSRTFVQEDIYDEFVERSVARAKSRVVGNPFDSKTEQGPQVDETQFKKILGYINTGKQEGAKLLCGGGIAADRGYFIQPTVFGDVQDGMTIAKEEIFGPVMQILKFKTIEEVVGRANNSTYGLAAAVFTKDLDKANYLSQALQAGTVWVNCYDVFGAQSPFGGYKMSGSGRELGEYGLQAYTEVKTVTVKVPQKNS
Method in brief: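 1 nM enzyme in 50 mM sodium phosphate pH 7.4 with 1.2 mM NAD+ and compound at 0.03–1000 nM; reaction started with 0.15 mM formaldehyde at 25 °C. NADH formation followed by fluorescence (ex 340/em 460 nm). IC50 from sigmoidal fits with floating Hill slope; apparent Ki from Morrison equation if tight binding.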

SMILES | inhibition at 10 µM (hMAO-B) [%] | IC50 [1] [nM] | hMAO-B inhibition (IC50 hMAO-B) (hMAO-B) [%] | inhibition at 1 µM [1] [%]
C[C@@H](NCC(=O)COc1ccc2c(=O)c(-c3ccc(O)cc3)coc2c1)c1ccc(F)cc1 [PT-56, 7-(3-{[(1R)-1-(4-fluorophenyl)ethyl]amino}-2-oxopropoxy)-3-(4-hydroxyphenyl)chromen-4-one] | 29 | 8 | – | –
O=c1c(-c2ccc(O)cc2)coc2cc(OCCCc3ccccc3)ccc12 [PT-57, 3-(4-hydroxyphenyl)-7-(3-phenylpropoxy)chromen-4-one] | 27 | 20 | 27 | –
O=c1c(-c2ccc(O)cc2)coc2cc(OCc3nnc(-c4cccc(F)c4)o3)ccc12 [PT-58, 7-{[5-(3-fluorophenyl)(1,3,4-oxadiazol-2-yl)]methoxy}-3-(4-hydroxyphenyl)chromen-4-one] | 25 | 11 | – | –
O=c1c(-c2ccc(O)cc2)coc2cc(OCCc3cccc(C(F)(F)F)c3)ccc12 [PT-59, 3-(4-hydroxyphenyl)-7-{[3-(trifluoromethyl)phenyl]ethoxy}chromen-4-one] | – | 670 | 24 | –
O=c1c(-c2ccc(O)cc2)coc2cc(OCc3nnc(-c4cccc(C(F)(F)F)c4)o3)ccc12 [PT-60, 3-(4-hydroxyphenyl)-7-({5-[3-(trifluoromethyl)phenyl](1,3,4-oxadiazol-2-yl)}methoxy)chromen-4-one] | 13 | 42 | – | –
O=c1c(-c2ccc(O)cc2)coc2cc(OCc3cnc(-c4ccccc4)o3)ccc12 [PT-61, 3-(4-hydroxyphenyl)-7-[(2-phenyl(1,3-oxazol-5-yl))methoxy]chromen-4-one] | 17 | 96 | – | –
O=c1c(-c2ccc(O)cc2)coc2cc(OCc3nnc(-c4ccccc4Cl)s3)ccc12 [PT-64, 7-{[5-(2-chlorophenyl)(1,3,4-thiadiazol-2-yl)]methoxy}-3-(4-hydroxyphenyl)chromen-4-one] | 8 | – | – | 43
Cc1nc(-c2ccc(C(F)(F)F)cc2)sc1COc1ccc2c(=O)c(-c3ccc(C#N)cc3)coc2c1 [PT-65, 4-[7-({4-methyl-2-[4-(trifluoromethyl)phenyl](1,3-thiazol-5-yl)}methoxy)-4-oxochromen-3-yl]benzenecarbonitrile] | 25 | – | – | 30
Cc1nc(-c2ccc(C(F)(F)F)cc2)sc1COc1ccc2c(=O)c(-c3ccc(NS(C)(=O)=O)cc3)coc2c1 [PT-66, 3-{4-[(methylsulfonyl)amino]phenyl}-7-({4-methyl-2-[4-(trifluoromethyl)phenyl](1,3-thiazol-5-yl)}methoxy)chromen-4-one] | 25 | – | – | 48
COc1ccc(-c2coc3cc(OCc4sc(-c5ccc(C(F)(F)F)cc5)nc4C)ccc3c2=O)cn1 [PT-67, 3-(6-methoxy(3-pyridyl))-7-({4-methyl-2-[4-(trifluoromethyl)phenyl](1,3-thiazol-5-yl)}methoxy)chromen-4-one] | 16 | – | – | 25
N#Cc1ccc(-c2coc3cc(OCc4nnc(-c5cc(F)cc(C(F)(F)F)c5)o4)ccc3c2=O)cc1 [PT-68, 4-[7-({5-[5-fluoro-3-(trifluoromethyl)phenyl](1,3,4-oxadiazol-2-yl)}methoxy)-4-oxochromen-3-yl]benzenecarbonitrile] | 14 | – | – | 33
CS(=O)(=O)Nc1ccc(-c2coc3cc(OCc4noc(-c5cc(F)cc(C(F)(F)F)c5)n4)ccc3c2=O)cc1 [PT-70, 7-({5-[3-fluoro-5-(trifluoromethyl)phenyl](1,2,4-oxadiazol-3-yl)}methoxy)-3-{4-[(methylsulfonyl)amino]phenyl}chromen-4-one] | 11 | – | – | 20
CS(=O)(=O)c1ccc(-c2coc3cc(OCc4noc(-c5cc(F)cc(C(F)(F)F)c5)n4)ccc3c2=O)cc1 [PT-71, 7-({5-[3-fluoro-5-(trifluoromethyl)phenyl](1,2,4-oxadiazol-3-yl)}methoxy)-3-[4-(methylsulfonyl)phenyl]chromen-4-one] | 11 | – | – | 8
CC(=O)c1cccc(-c2coc3cc(OCc4noc(-c5cc(F)cc(C(F)(F)F)c5)n4)ccc3c2=O)c1 [PT-73, 3-(3-acetylphenyl)-7-({5-[3-fluoro-5-(trifluoromethyl)phenyl](1,2,4-oxadiazol-3-yl)}methoxy)chromen-4-one] | 10 | – | – | 18
O=c1c(-c2ccc(O)cc2)coc2cc(OCc3nnc(-c4cc(F)cc(C(F)(F)F)c4)o3)ccc12 [PT-74, 7-({5-[3-fluoro-5-(trifluoromethyl)phenyl](1,3,4-oxadiazol-2-yl)}methoxy)-3-(4-hydroxyphenyl)chromen-4-one] | 22 | 5 | – | –
O=c1c(-c2ccc(O)cc2)coc2cc(OCc3nnc(-c4ccc(F)cc4)o3)ccc12 [PT-81, 7-{[5-(4-fluorophenyl)(1,3,4-oxadiazol-2-yl)]methoxy}-3-(4-hydroxyphenyl)chromen-4-one] | 12 | 0.4 | – | –
O=c1c(-c2ccc(O)cc2)coc2cc(OCc3ccncc3)ccc12 [PT-82, 3-(4-hydroxyphenyl)-7-(4-pyridylmethoxy)chromen-4-one] | 15 | 5 | – | –
O=C(COc1ccc2c(=O)c(-c3ccc(O)cc3)coc2c1)Nc1ccccc1C(F)(F)F [PT-84, 2-[3-(4-hydroxyphenyl)-4-oxochromen-7-yloxy]-N-[2-(trifluoromethyl)phenyl]-acetamide] | 20 | 15 | – | –
O=c1c(-c2ccc(O)cc2)coc2cc(OCCc3ccccc3)ccc12 [PT-87, 3-(4-hydroxyphenyl)-7-(2-phenylethoxy)chromen-4-one] | 21 | – | – | 0.04
O=c1c(-c2ccc(O)cc2)coc2cc(OCCOc3ccc(Cl)cc3)ccc12 [PT-89, 7-[2-(4-chlorophenoxy)ethoxy]-3-(4-hydroxyphenyl)chromen-4-one] | 32 | 22 | – | –
C[C@@H](NC(=O)COc1ccc2c(=O)c(-c3ccc(O)cc3)coc2c1)c1ccc(F)cc1 [PT-90, N-[(1R)-1-(4-fluorophenyl)ethyl]-2-[3-(4-hydroxyphenyl)-4-oxochromen-7-yloxy]acetamide] | 12 | 6 | – | –
O=c1c(-c2ccc(O)cc2)coc2cc(OCc3ccccn3)ccc12 [PT-91, 3-(4-hydroxyphenyl)-7-(2-pyridylmethoxy)chromen-4-one] | 11 | 7 | – | –
COC(=O)c1coc(COc2ccc3c(=O)c(-c4ccc(O)cc4)coc3c2)n1 [PT-101, methyl 2-{[3-(4-hydroxyphenyl)-4-oxochromen-7-yloxy]methyl}-1,3-oxazole-4-carboxylate] | 34 | 5 | – | –
C[C@H](NC(=O)COc1ccc2c(=O)c(-c3ccc(O)cc3)coc2c1)c1ccc(F)cc1 [PT-103, N-[(1S)-1-(4-fluorophenyl)ethyl]-2-[3-(4-hydroxyphenyl)-4-oxochromen-7-yloxy]acetamide] | 29 | 8 | – | –
O=c1c(-c2ccc(O)cc2)coc2cc(OC[C@H](O)Cc3ccccc3)ccc12 [PT-109, 7-((2R)-2-hydroxy-3-phenylpropoxy)-3-(4-hydroxyphenyl)chromen-4-one] | 26 | 14 | – | –
